In patent US20030109460A1, “Medicinal composition containing camptothecin derivative and ph regulating agent” (priority 2000, published 2003):
“And” between values parts separate entries of the source, which are not always exact repeats. Identical values can stand only once.

How the values were obtained:
[1] = Stability of freeze-dried compound AS methanesulfonate, effect of adding amount of maltose (Example 4); format: physicochemical; conditions: brown vials
[2] = Stability of freeze-dried compound AS methanesulfonate, effect of pH, maltose 100 mg/ml (Example 5); format: physicochemical; conditions: brown vials
Experimental: Maltose was added to an aqueous solution (1.0 mg/ml as a concentration converted to free form) of compound AS methanesulfonate to the final concentration of 100 mg/ml (AS methanesulfonate:maltose=1:77 by weight), and pH was adjusted to 3.5, 4.0 or 4.5 by adding hydrochloric acid. […] Brown vials were used as the container.

[3] = Stability of freeze-dried compound AS methanesulfonate, effect of pH, maltose 50 mg/ml (Example 6); format: physicochemical; conditions: colorless vials
Experimental: Maltose was added to an aqueous solution (1.0 mg/ml as a concentration converted to free form) of compound AS methanesulfonate to the final concentration of 50 mg/ml (AS methanesulfonate:maltose=1:38 by weight), and pH was adjusted to 2.5, 3.0, 3.5 or 4.0 by adding hydrochloric acid. […] Colorless vials were used as the container.

[4] = Long term stability of freeze-dried compound AS methanesulfonate (Example 8); format: physicochemical
Experimental: A 1.4 kg portion of maltose and 73 g (56 g as converted to free form) of compound AS methanesulfonate was dissolved in 22 L of water (AS methanesulfonate:maltose=1:19 by weight). […] After freeze drying, this was stored under a condition of 5° C. or 25° C. with a relative humidity of 60%, and then dissolved in water to the same concentration of the solution before freeze drying to measure pH. […] Colorless vials were used as the container.

[5] = Changes in pH by freeze drying treatment (Example 7); format: physicochemical; conditions: for pH Before freeze drying / pH After freeze drying: Compound AS 2 mg, hydrochloric acid; for pH After freeze drying: redissolved to same concentration
Experimental: The pharmaceutical composition containing compound AS methanesulfonate was produced according to the formulation and production scale shown in Table 7 (AS methanesulfonate:maltose=1:19 or 1:38 by weight), and pH of the solution before freeze drying and pH of a solution prepared by dissolving the preparation after freeze drying in water to the same concentration of the solution before freeze drying were measured.

[6] = system: tumor; assay: Anti-tumor effect
[7] = Solubility under strongly acidic condition; format: physicochemical; conditions: strongly acidic condition of pH 2.0 or less; salting out
Text: Generally, camptothecin derivatives have a lactone ring structure, so it is considered that reduction of the drug effect occurs due to ring-opening of the lactone ring in the structure in the alkaline range. In consequence, it is desirable that a pharmaceutical composition containing a camptothecin derivative having a lactone ring or a salt thereof is maintained within acidic range for the purpose of keeping the lactone ring under closed state. […] From two viewpoints of keeping closed state of lactone ring and ensuring proper solubility of the compound, it is desirable that the pharmaceutical composition of the invention is maintained within a weakly acidic condition by formulating a pH-adjusting substance. In this connection, when the pharmaceutical composition is an aqueous preparation, the term “a weakly acidic condition” as used herein means from about pH 3 to 6, and when the pharmaceutical composition is a freeze-dried preparation, it means that pH of an aqueous solution prepared by dissolving in water is from about pH 3 to 6.

[8] = Stability against heat and light; format: physicochemical; conditions: severe treatment with heat and light
Experimental: In consequence, overkill approach and the like sterilization methods which accompany heating are not suited for the pharmaceutical composition of the invention. In order to obtain a substantially sterilized condition, it is desirable to employ a method in which the pharmaceutical composition is prepared under aseptic condition, a method in which a filter sterilization-treated solution of the pharmaceutical composition is made into a freeze-dried preparation, and the like. Particularly, the method for making a freeze-dried preparation is desirable. In addition, it is desirable for its preservation to use a container having shading ability. For example, brown vials and the like can be cited.

[9] = 25° C., 60% R.H., Starting time
[10] = Production scale 28.0 L, Maltose 50 mg, water total vol. 1 ml
[11] = Production scale 90.0 L, Maltose 100 mg, water total vol. 2 ml

Compound: CC[C@@]1(O)C(=O)OCc2c1cc1n(c2=O)Cc2c-1nc1cc(F)c(C)c3c1c2[C@@H](N)CC3.CS(=O)(=O)O [compound AS methanesulfonate, (1S,9S)-1-amino-9-ethyl-5-fluoro-2,3-dihydro-9-hydroxy-4-methyl-1H,12H-benzo[de]pyrano[3′,4′:6,7]indolizino[1,2-b]quinoline-10,13(9H,15H)-dione methanesulfonate]
- Weight % of total analogous matter ([1]; Maltose 50 mg/ml, 40° C., 75% R.H., 1 month, pH 4.0): 0.52 Weight %
- Weight % of total analogous matter ([1]; Maltose 50 mg/ml, 50° C., 1 month, pH 4.0): 0.80 Weight %
- Weight % of total analogous matter ([1]; Maltose 50 mg/ml, Starting time, pH 4.0 hydrochloric acid): 0.34 Weight %
- Weight % of total analogous matter ([1]; Maltose 100 mg/ml, 40° C., 75% R.H., 1 month, pH 4.0): 1.36 Weight %
- Weight % of total analogous matter ([1]; Maltose 100 mg/ml, 50° C., 1 month, pH 4.0): 2.24 Weight %
- Weight % of total analogous matter ([1]; Maltose 100 mg/ml, Starting time, pH 4.0): 0.50 Weight %
- Weight % of total analogous matter ([2]; pH 3.5, 40° C., 75% R.H., 1 month): 3.12 Weight %
- Weight % of total analogous matter ([2]; pH 3.5, 60° C., 2 weeks): 7.52 Weight %
- Weight % of total analogous matter ([2]; pH 3.5, Starting time): 0.72 Weight %
- Weight % of total analogous matter ([2]; pH 4.0, 40° C., 75% R.H., 1 month): 1.36 Weight %
- Weight % of total analogous matter ([2]; pH 4.0, 60° C., 2 weeks): 3.13 Weight %
- Weight % of total analogous matter ([2]; pH 4.0, Starting time): 0.50 Weight %
- Weight % of total analogous matter ([2]; pH 4.5, 40° C., 75% R.H., 1 month): 0.51 Weight %
- Weight % of total analogous matter ([2]; pH 4.5, 60° C., 2 weeks): 0.75 Weight %
- Weight % of total analogous matter ([2]; pH 4.5, Starting time): 0.40 Weight %
- Weight % of total analogous matter ([3]; pH 2.5, 60° C., 2 weeks): 21.43 Weight %
- Weight % of total analogous matter ([3]; pH 2.5, Starting time): 1.05 Weight %
- Weight % of total analogous matter ([3]; pH 3.0, 60° C., 2 weeks): 10.64 Weight %
- Weight % of total analogous matter ([3]; pH 3.0, Starting time): 0.42 Weight %
- Weight % of total analogous matter ([3]; pH 3.5, 60° C., 2 weeks): 5.07 Weight %
- Weight % of total analogous matter ([3]; pH 3.5, Starting time): 0.27 Weight %
- Weight % of total analogous matter ([3]; pH 4.0, 60° C., 2 weeks): 1.83 Weight %
- Weight % of total analogous matter ([3]; pH 4.0, Starting time): 0.23 Weight %
- Total analogous matter weight % ([4]; 5° C., 1 month): 0.32 weight %
- pH ([4]; 5° C., 1 month): 3.9
- Total analogous matter weight % ([4]; 5° C., 3 months): 0.33 weight %
- pH ([4]; 5° C., 3 months): 3.9
- Total analogous matter weight % ([4]; 5° C., 6 months): 0.33 weight %
- pH ([4]; 5° C., 6 months): 3.7
- Total analogous matter weight % ([4]; 5° C., 9 months): 0.33 weight %
- pH ([4]; 5° C., 9 months): 4.0
- Total analogous matter weight % ([4]; 5° C., 12 months): 0.33 weight %
- pH ([4]; 5° C., 12 months): 3.9
- Total analogous matter weight % ([4]; 5° C., 24 months): 0.33 weight %
- pH ([4]; 5° C., 24 months): 4.1
- Total analogous matter weight % ([4]; 5° C., 30 months): 0.33 weight %
- pH ([4]; 5° C., 30 months): 4.6
- Total analogous matter weight % ([4]; 5° C., 37 months): 0.32 weight %
- pH ([4]; 5° C., 37 months): 3.7
- Total analogous matter weight % ([4]; 5° C., Starting time, colorless vials): 0.33 weight %
- pH ([4]; 5° C., Starting time, redissolved in water): 3.8
- Total analogous matter weight % ([4]; 25° C., 60% R.H., 1 month): 0.33 weight %
- pH ([4]; 25° C., 60% R.H., 1 month): 3.9
- Total analogous matter weight % ([4]; 25° C., 60% R.H., 3 months): 0.33 weight %
- pH ([4]; 25° C., 60% R.H., 3 months): 3.9
- Total analogous matter weight % ([4]; 25° C., 60% R.H., 6 months): 0.33 weight %
- pH ([4]; 25° C., 60% R.H., 6 months): 3.7
- Total analogous matter weight % ([4]; 25° C., 60% R.H., 9 months): 0.33 weight %
- pH ([4]; 25° C., 60% R.H., 9 months): 4.0
- Total analogous matter weight % ([4]; 25° C., 60% R.H., 12 months): 0.33 weight %
- pH ([4]; 25° C., 60% R.H., 12 months): 4.0
- Total analogous matter weight % ([4]; 25° C., 60% R.H., 24 months): 0.33 weight %
- pH ([4]; 25° C., 60% R.H., 24 months): 4.3
- Total analogous matter weight % ([4]; 25° C., 60% R.H., 37 months): 0.33 weight %
- pH ([4]; 25° C., 60% R.H., 37 months): 3.9
- Total analogous matter weight % [4, 9]: 0.33 weight %
- pH [4, 9]: 3.8
- formation of the total analogous matter as weight % ([4]; until 37 months): ≤ 0.33%
- change of pH by freeze drying treatment ([5]; maltose 1:19 or 1:38 by weight): hardly changes

Compound: CC[C@@]1(O)C(=O)OCc2c1cc1n(c2=O)Cc2c-1nc1cc(F)c(C)c3c1c2[C@H](N)CC3 [compound AR, (1R,9S)-1-amino-9-ethyl-5-fluoro-2,3-dihydro-9-hydroxy-4-methyl-1H,12H-benzo[de]pyrano[3′,4′:6,7]indolizino[1,2-b]quinoline-10,13 (9H,15H)-dione]
- anti-tumor effect [6]: potent anti-tumor effect

Compound: CC[C@@]1(O)C(=O)OCc2c1cc1n(c2=O)Cc2c-1nc1cc(F)c(C)c3c1c2C(N)CC3 (stereo partly drawn) [compound A, (9S)-1-amino-9-ethyl-5-fluoro-2,3-dihydro-9-hydroxy-4-methyl-1H,12H-benzo[de]pyrano[3′,4′:6,7]indolizino[1,2-b]quinoline-10,13(9H,15H)-dione]
- solubility [7]: considerably reduced
- stability against heat and light [8]: considerably unstable

Compound: CC[C@@]1(O)C(=O)OCc2c1cc1n(c2=O)Cc2c-1nc1cc(F)c(C)c3c1c2[C@@H](N)CC3 [compound AS, (1S,9S)-1-amino-9-ethyl-5-fluoro-2,3-dihydro-9-hydroxy-4-methyl-1H,12H-benzo[de]pyrano[3′,4′:6,7]indolizino[1,2-b]quinoline-10,13(9H,15H)-dione]
- anti-tumor effect [6]: potent anti-tumor effect
- anti-tumor effect relative to compound AR ([6]; compound AS versus compound AR): about two times higher
- pH Before freeze drying [5, 10]: 3.73 and 3.67
- pH After freeze drying [5, 10]: 4.00 and 3.83
- pH Before freeze drying [5, 11]: 3.85
- pH After freeze drying [5, 11]: 3.97
